Usually IC50 stands for the concentration that gives 50% inhibition. Higher therefore signals a need for much substance. Broadly, the melting point is the temperature of the solid-liquid transition.

Series [1] addresses MMP-13CD (catalytic domain of collagenase-3) (Homo sapiens, UniProt P45452). The series can be described thus: thiopeptolide substrate hydrolysis assay, MMP-13CD. It counts as biochemical. The text has this: (§1) The invention compounds of Formula I have been evaluated in standard assays for their ability to inhibit the activity of various MMP enzymes. The assays used to evaluate the biological activity of the invention compounds are well known and routinely used by those skilled in the study of MMP inhibitors and their use to treat clinical conditions.
(§2) Such assays are described in detail by Ye et al., in Biochemistry, 1992;31(45):11231-11235, which is incorporated herein by reference.
(§3) Thiopeptolide substrates show virtually no decomposition or hydrolysis in the absence of a matrix metalloproteinase enzyme. A typical thiopeptolide substrate commonly utilized for assays is Ac-Pro-Leu-Gly-thioester;-Leu-Leu-Gly-OEt. A 100 μL assay mixture will contain 50 mM of 2-morpholinoethane sulfonic acid monohydrate (MES, pH 6.0) 10 mM CaCl2, 100 μM thiopeptolide substrate, and 1 mM 5,5′-dithio-bis-(2-nitro-benzoic acid) (DTNB). The thiopeptolide substrate concentration is varied from 10 to 800 μM to obtain Km and Kcat values. The change in absorbance at 405 nm is monitored on a Thermo Max microplate reader (Molecular Devices, Menlo Park, Calif.) at room temperature (22° C.). The calculation of the amount of hydrolysis of the thiopeptolide substrate is based on E412=13600 m^−1 cm^−1 for the DTNB-derived product 3-carboxy-4-nitrothiophenoxide. Assays are carried out with and without matrix metalloproteinase inhibitor compounds, and the amount of hydrolysis is compared for a determination of inhibitory activity of the test compounds.
Several representative compounds have been evaluated for their ability to inhibit various matrix metalloproteinase enzymes. The invention compounds are uniquely active in inhibiting MMP-13. Table 1 below presents inhibitory activity for invention compounds in the column labelled “MMP-13CD IC50, μM”. In the table, MMP-13CD refers to the catalytic domain of collagenase-3. It has been shown previously (Ye Qi-Zhuang, Hupe D., Johnson L., Current Medicinal Chemistry, 1996;3:407-418) that inhibitor activity against a catalytic domain of an MMP is predictive of the inhibitor activity against the respective full-length enzyme. Test compounds were evaluated at various concentrations in order to determine their respective IC50 values, the micromolar concentration of compound required to cause a 50% inhibition of the hydrolytic activity of the respective enzyme.

The target in series [2] is T1, MMP-7 (Homo sapiens, UniProt P09237).
T1 sequence (P09237 95-267): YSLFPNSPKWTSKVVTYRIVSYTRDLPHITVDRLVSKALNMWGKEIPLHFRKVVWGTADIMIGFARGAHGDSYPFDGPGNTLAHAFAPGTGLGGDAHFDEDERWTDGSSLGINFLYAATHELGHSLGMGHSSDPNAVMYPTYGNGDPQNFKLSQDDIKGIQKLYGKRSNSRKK
In words: thiopeptolide substrate hydrolysis assay, MMP-7. It counts as biochemical. The settings on record: Table 2.
Text: as §1, §2, §3
(§4) The invention compounds are also selective inhibitors of MMP-13 versus other MMP enzymes, including versus MMP-7 and MMP-9. This is shown by comparing the IC50 data presented below in Table 2 in the columns labeled “MMP-7 IC50 (μM),” “MMP-9CD IC50 (μM),” and “MMP-13CD IC50 (μM),” respectively.

Series [3] deals with T2, MMP-9CD (Homo sapiens, UniProt P14780).
T2 construct: "MMP-9CD"
T2 sequence (P14780 with tags, fused parts or gaps DEL216-390 limits assumed): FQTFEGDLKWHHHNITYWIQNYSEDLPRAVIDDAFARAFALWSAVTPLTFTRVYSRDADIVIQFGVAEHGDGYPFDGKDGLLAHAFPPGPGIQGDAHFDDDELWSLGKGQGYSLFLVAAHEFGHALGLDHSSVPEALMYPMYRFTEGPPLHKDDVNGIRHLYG
The series can be described thus: thiopeptolide substrate hydrolysis assay, MMP-9CD. The class given is biochemical. As to conditions: Table 2, catalytic domain.
Text: as §1, §2, §3, §4

Structures are written as SMILES.

On to `O=C(OCc1ccc2c(c1)OCO2)c1csc(C(=O)OCc2ccc3c(c2)OCO3)c1` [Example 5, Thiophene-2,4-dicarboxylic Acid di-1,3-benzodioxol-5-ylmethyl Ester], for which the melting point was 164 to 165 °C. Further, in series [1] (Table 1), it took 0.45 µM to reach half-maximal inhibition (IC50). Also, the IC50 in series [2] is 10 µM. This compound returned an IC50 in series [3] of 30 µM.

As for `Cn1cc(C(=O)NCc2ccc3c(c2)OCO3)cc1C(=O)NCc1ccc2c(c1)OCO2` [Example 8, 1-Methyl-1H-pyrrole-2,4-dicarboxylic Acid bis-[(1,3-benzodioxol-5-ylmethyl)-amide]], the melting point fell in the range of 147 to 152 °C. Half-maximal inhibition in series [1] (Table 1) (IC50) was put at 3 µM.

`COc1cc(C(=O)OCc2ccc3c(c2)OCO3)sc1C(=O)OCc1ccc2c(c1)OCO2` [Example 3, 3-Methoxy-thiophene-2,5-dicarboxylic Acid di-1,3-benzodioxol-5-ylmethyl Ester]: the melting point was 153 to 155 °C. For the same compound, in series [1] (Table 1), the IC50 came to 3.6 µM.

The compound `Cc1sc(C(=O)OCc2ccc3c(c2)OCO3)cc1NC(=O)NCc1ccccc1` [Example 15a, 4-(3-Benzyl-ureido)-5-methyl-thiophene-2-carboxylic Acid 1,3-benzodioxol-5-ylmethyl Ester] showed a melting point of 216 to 217 °C. In series [1] (Table 2), this compound yielded an IC50 of 0.35 µM.

As for `O=C(NCc1ccc2c(c1)OCO2)c1csc(C(=O)NCc2ccc3c(c2)OCO3)c1` [Example 6, Thiophene-2,4-dicarboxylic Acid bis-[(1,3-benzodioxol-5-ylmethyl)-amide]], the melting point is 174 to 175 °C. The midpoint of inhibition in series [1] (Table 1), the IC50, lay at 0.37 µM. In addition, the concentration for half-maximal inhibition (IC50) in series [2] is 32 µM.

In the case of `Cc1sc(C(=O)NCc2ccccc2)cc1NC(=O)NCc1ccccc1` [Example 14, 4-(3-Benzyl-ureido)-5-methyl-thiophene-2-carboxylic Acid Benzylamide], the IC50 in series [1] (Table 1) came to 14 µM; in series [3], 99 µM.

With `Cc1sc(C(=O)OCc2ccccc2)cc1NC(=O)NCc1ccccc1` [Example 13, 4-(3-Benzyl-ureido)-5-methyl-thiophene-2-carboxylic Acid Benzyl Ester], the melting point was in the range of 208 to 209 °C. In series [1] (Table 1), this compound had an IC50 of 22 µM. The IC50 in series [2] worked out at 30 µM. The same compound returned an IC50 in series [3] of 30 µM.

`Cc1sc(C(=O)NCc2ccc3c(c2)OCO3)cc1NC(=O)NCc1ccccc1` [Example 15b, 4-(3-Benzyl-ureido)-5-methyl-thiophene-2-carboxylic Acid (1,3-benzodioxol-5-ylmethyl)-amide] showed a melting point of 194 to 195 °C. In series [1] (Table 1), the IC50 came to 0.92 µM. Also, half-maximal inhibition in series [2] (IC50) required 45 µM. Also, in series [3], half-maximal inhibition (IC50) required 30 µM.

The compound `COc1cc(C(=O)NCc2ccc3c(c2)OCO3)sc1C(=O)NCc1ccc2c(c1)OCO2` [Example 4, 3-Methoxy-thiophene-2,5-dicarboxylic Acid bis-[(1,3-benzodioxol-5-ylmethyl)-amide]] returned a melting point of 191 to 195 °C. In addition, half-maximal inhibition in series [1] (Table 1) (IC50) required 0.2 µM. The compound also yielded an IC50 in series [2] of 30 µM.

For the compound `O=C(NCc1ccc2c(c1)OCO2)c1ccc(C(=O)NCc2ccc3c(c2)OCO3)s1` [Example 2, Thiophene-2,5-dicarboxylic Acid bis-[(1,3-benzodioxol-5-ylmethyl)-amide]], the melting point lay in the range of 207 to 209 °C. The IC50 in series [1] (Table 1) turned out to be 0.85 µM. The compound further registered an IC50 in series [2] of 30 µM. The compound further yielded an IC50 in series [3] of 30 µM.

As for `Cc1sc(C(=O)NCc2ccccc2)cc1NC(=O)Cc1ccccc1` [Example 10, 5-Methyl-4-phenylacetylamino-thiophene-2-carboxylic Acid Benzylamide], the IC50 in series [1] (Table 1) and in series [3] was 30 µM throughout.

`COc1cc(C(=O)NCc2ccccc2)sc1C(=O)NCc1ccccc1` [Example 22, 3-Methoxy-thiophene-2,5-dicarboxylic Acid Bis Benzylamide]: in series [1] (Table 1), the IC50 was not below 100 µM.

The compound `COC(=O)c1cc(NC(=O)NCc2ccccc2)c(C)s1` [Example 16, 5-Methyl-4-(3-benzyl-ureido)-thiophene-2-carboxylic Acid Methyl Ester] returned a melting point of 185 to 187 °C. Also, the IC50 in series [1] (Table 1) was determined as 2 µM.

Regarding `Cn1cc(C(=O)OCc2ccc3c(c2)OCO3)cc1C(=O)OCc1ccc2c(c1)OCO2` [Example 7, 1-Methyl-1H-pyrrole-2,4-dicarboxylic Acid di-1,3-benzodioxol-5-ylmethyl Ester], the melting point fell in the range of 103 to 110 °C. In series [1] (Table 1), this compound came in with an IC50 of 0.97 µM.

With `Cc1sc(C(=O)NCc2ccc3c(c2)OCO3)cc1NC(=O)Cc1ccccc1` [Example 12, 5-Methyl-4-phenylacetylamino-thiophene-2-carboxylic Acid (1,3-benzodioxol-5-ylmethyl)-amide], the melting point is 138 to 140 °C. The compound also showed an IC50 in series [1] (Table 1) of 2.7 µM.

Turning to `Cc1sc(C(=O)OCc2ccccc2)cc1NC(=O)Cc1ccccc1` [Example 9, 5-Methyl-4-phenylacetylamino-thiophene-2-carboxylic Acid Benzyl Ester], the melting point lay in the range of 173 to 174 °C. In addition, the IC50 in series [1] (Table 1) was 2.3 µM.

With `O=C(OCc1ccc2c(c1)OCO2)c1ccc(C(=O)OCc2ccc3c(c2)OCO3)s1` [Example 1, Thiophene-2,5-dicarboxylic Acid di-1,3-benzodioxol-5-ylmethyl Ester], the melting point lay in the range of 141 to 148 °C. The compound further showed an IC50 in series [1] (Table 1) of 8.6 µM.

Turning to `CNc1sc(C(=O)NCc2ccc(OC)cc2)cc1C(=O)NCc1ccc(C(=O)O)c(C)c1` [Example 21, 4-({[5-(4-Methoxy-benzylcarbamoyl)-2-methylamino-thiophene-3-carbonyl]-amino}-methyl)-2-methyl-benzoic Acid], in series [1] (Table 1), the IC50 worked out at 3.4 µM.

The compound `Cc1sc(C(=O)OCc2ccc3c(c2)OCO3)cc1NC(=O)Cc1ccccc1` [Example 11, 5-Methyl-4-phenylacetylamino-thiophene-2-carboxylic Acid 1,3-benzodioxol-5-ylmethyl Ester] returned an IC50 in series [1] (Table 1) of 0.19 µM.

With `O=C(NCc1ccccc1)Nc1nnc(C(=O)OCc2ccccc2)s1` [Example 23, 5-(3-Benzyl-ureido)-1,3,4-thiadiazole-2-carboxylic Acid Benzyl Ester], the melting point was 188 to 192 °C. This compound gave an IC50 in series [1] (Table 1) of 30 µM.

The values above are taken from US6924276B2, “Diacid-substituted heteroaryl derivatives as matrix metalloproteinase inhibitors” (Warner-Lambert Company, priority 2001, dated 2005).
